Results reported in patent US10487046B1, “Dihydroxytyrosol hexamethylene-1,6-dicarbamate having antioxidant activity and a method of preparing the same” (SHAANXI UNIVERSITY OF SCIENCE AND TECHNOLOGY, priority 2019, dated 2019).

Experiment: DPPH Radical Scavenging Activity Assay
Format: biochemical
Settings: for Scavenging Activity (%) (n = 3): DPPH 0.2×10^−4 mol/L in methanol, 30 minutes, 517 nm
From the text: DPPH Radical Scavenging Activity Assay 2,2-Diphenyl-1-picryl hydrazyl (DPPH) is an organic compound composed of a stable organic radical. In the DPPH molecule, due to the presence of multiple electron-withdrawing —NO2 and large it bonds of the benzene ring, nitrogen free radical is stabilized. Its methanol solution is purple and has a maximum absorption peak at 517 nm. After the addition of an antioxidant, DPPH captures an electron to be paired with the free electron, and the purple fades and turns into a yellow substance. The absorption at 517 nm disappears, and the degree of fading is quantitatively related to the number of electrons it captures. Based on this principle, a spectrophotometer is used to detect the change of the absorbance of the DPPH radical and the sample solution, and the ability of the sample to provide hydrogen atoms and scavenge free radicals can be measured. (a) Preparation of DPPH solution: measuring exact amount of 2,2-diphenyl-1-picryl hydrazyl (DPPH) and dissolving in methanol to prepare a 0.2×10^−4 mol/L DPPH solution, stored at 0° C. in dark. (b) Preparation of sample solutions: Vc (vitamin C, positive control), dihydroxytyrosol hexamethylene-1,6-dicarbamate, and hydroxytyrosol (control) were dissolved in methanol and diluted in a concentration gradient. Measuring the scavenging activity of the sample solutions: 2 mL of the sample solutions (table 1) at each concentration gradient was taken, 2 mL 0.2×10^−4 mol/L DPPH solution was added, the mixture was mixed and reacted at room temperature in dark for 30 minutes, and methanol was then added to adjust final volume. The absorbance Ai was measured at 517 nm. 2 mL control solution and 2 mL methanol were mixed, and the absorbance Aj was measured. 2 mL DPPH solution and 2 mL methanol were mixed, and the absorbance Ao was measured. (d) The scavenging activity of the sample solution and control solutions is calculated according to the following calculation formula and shown in Table 3 and FIG. 3. Scavenging activity (%)=100×[1−(Ai−Aj)/Ao]

| Structure (SMILES) | Scavenging Activity (%) (n = 3) (1.76 ppm) | DPPH radical scavenging activity (in words) (1.76 to 915.20 ppm) | Scavenging Activity (%) (n = 3) (8.80 ppm) | Scavenging Activity (%) (n = 3) (21.12 ppm) | Scavenging Activity (%) (n = 3) (42.24 ppm) | Scavenging Activity (%) (n = 3) (79.20 ppm) | Scavenging Activity (%) (n = 3) (112.64 ppm) | Scavenging Activity (%) (n = 3) (281.60 ppm) | Scavenging Activity (%) (n = 3) (492.80 ppm) | Scavenging Activity (%) (n = 3) (792.00 ppm) | Scavenging Activity (%) (n = 3) (915.20 ppm) | DPPH radical scavenging activity compared with hydroxytyrosol (B) (at same concentration) |
| --- | --- | --- | --- | --- | --- | --- | --- | --- | --- | --- | --- | --- |
| O=C(NCCCCCCNC(=O)OCCc1ccc(O)c(O)c1)OCCc1ccc(O)c(O)c1 [A, dihydroxytyrosol hexamethylene-1,6-dicarbamate] | 19.87% | obvious DPPH radical scavenging activity in a concentration dependent manner | 23.68% | 37.02% | 68.43% | 76.52% | 86.33% | 91.48% | 95.31% | 96.66% | 97.14% | better DPPH radical scavenging activity than hydroxytyrosol (B) |
| OCCc1ccc(O)c(O)c1 [B, hydroxytyrosol] | 8.69% | – | 10.97% | 18.10% | 28.89% | 41.44% | 45.83% | 60.58% | 72.81% | 76.35% | 80.61% | – |
| O=C1O[C@H]([C@@H](O)CO)C(O)=C1O [Vc, Vitamin C] | 21.35% | – | 30.80% | 87.03% | 95.44% | 96.06% | 97.88% | 98.41% | 99.04% | 99.42% | 99.16% | – |
